Reference: patent US12350266B2, “FGFR2 inhibitors for the treatment of cholangiocarcinoma” (Janssen Pharmaceutica NV, priority 2017, dated 2025)

Legend:
[1] = compared with published Part 1 results (Tabernero 2015)
[2] = tested on: FGFR-aberrant cholangiocarcinoma
Source text: Sparse samples were collected in Parts 3 and 4.

[3] = tested on: advanced cholangiocarcinoma patients; test: LUC2001 (NCT02699606) phase 2a study: safety (adverse events)
Protocol: (§1) LUC2001 is an open-label, multicenter, phase 2a study including advanced cholangiocarcinoma subjects with FGFR alterations, based on FoundationOne testing, who failed at least 1 prior systemic treatment. The primary endpoint is objective response rate (ORR; by Response Evaluation Criteria in Solid Tumors (RECIST) version 1.1). The secondary endpoints are disease control rate (DCR), safety and pharmacokinetics. Disease is evaluated every 8 weeks until disease progression (PD). […] The dose of the drug may be modified, delayed, or terminated based on guidelines in the protocol.

[4] = tested on: patients with FGFR-aberrant cholangiocarcinoma; test: Clinical trial NCT01703481: safety; format: in vivo, human; conditions: compared with published Part 1 results (Tabernero 2015)
Protocol: Eleven patients with FGFR-aberrant cholangiocarcinoma were treated at 9 mg QD (n=1, Part 3) or 10 mg intermittent (n=10, Part 4).

[5] = tested on: advanced cholangiocarcinoma with FGFR alterations; conditions: 11 subjects dosed with 8 mg qd; snapshot 20 Mar. 2018
Protocol: as §1

[6] = 8 mg qd, most common AEs (>30%)

SMILES: COc1cc(OC)cc(N(CCNC(C)C)c2ccc3ncc(-c4cnn(C)c4)nc3c2)c1 [erdafitinib, N-(3,5-dimethoxy-phenyl)-N′-(1-methylethyl)-N-[3-(1-methyl-1H-pyrazol-4-yl)quinoxalin-6-yl]ethane-1,2-diamine]
- PK data [1]: consistent with those from the previously published results from Part 1 of this study
- partial responses, fusion FGFR2-BICC1 ([2]; number of patients (n)): 1
- partial responses, fusion FGFR2-CCAR1 ([2]; number of patients (n)): 1
- partial responses, patients with FGFR translocations ([2]; number of patients among the 3 partial responses): 2
- AE diarrhea (subjects/dosed) [3, 6]: 4/11
- AE dry mouth (subjects/dosed) [3, 6]: 7/11
- AE hyperphosphatemia (subjects/dosed) [3, 6]: 8/11
- AE nail disorder (subjects/dosed) [3, 6]: 4/11
- AE palmar-plantar erythrodysaesthesia syndrome (subjects/dosed) [3, 6]: 4/11
- AE stomatitis (subjects/dosed) [3, 6]: 7/11
- AE leading to treatment discontinuation or death ([3]; 11 subjects, 8 mg qd): no AE led to treatment discontinuation or death
- subjects who experienced AEs ([3]; 11 subjects, 8 mg qd): All subjects experienced AEs
- subjects with AEs leading to drug interruption ([3]; 11 subjects, 8 mg qd): all had AEs leading to drug interruption
- safety profile (conclusion) ([3]; patients with FGFR-aberrant advanced cholangiocarcinoma): tolerable safety profile
- Safety data [4]: consistent with those from the previously published results from Part 1 of this study
- PD (disease progression), number of subjects [5]: 2
